Laboratory results reported in PubChem BioAssay (NCI).
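Exposure lasted 48 hours, with cells grown in 96-well plates and compounds tested at five concentrations. Here, GI50 denotes the concentration required for 50% inhibition of growth. TGI: concentration producing complete growth inhibition.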

How the values were obtained:
Assay in all cases: NCI-60 cell line screen, 48 h
SK-OV-3 ovarian = test system: SK-OV-3 ovarian
DU-145 prostate = test system: DU-145 prostate
COLO 205 colon = test system: COLO 205 colon
SNB-19 CNS = test system: SNB-19 CNS
SF-539 CNS = test system: SF-539 CNS
LOX IMVI melanoma = test system: LOX IMVI melanoma
RXF 393 renal = test system: RXF 393 renal
SF-268 CNS = test system: SF-268 CNS
NCI-H226 lung = test system: NCI-H226 lung
SK-MEL-28 melanoma = test system: SK-MEL-28 melanoma

| SMILES | GI50 (SK-OV-3 ovarian) | TGI (SK-OV-3 ovarian) | GI50 (DU-145 prostate) | TGI (DU-145 prostate) | GI50 (COLO 205 colon) | TGI (COLO 205 colon) | GI50 (SNB-19 CNS) | TGI (SNB-19 CNS) | GI50 (SF-539 CNS) | TGI (SF-539 CNS) | GI50 (LOX IMVI melanoma) | TGI (LOX IMVI melanoma) | GI50 (RXF 393 renal) | TGI (RXF 393 renal) | GI50 (SF-268 CNS) | TGI (SF-268 CNS) | GI50 (NCI-H226 lung) | TGI (NCI-H226 lung) | GI50 (SK-MEL-28 melanoma) | TGI (SK-MEL-28 melanoma) |
| --- | --- | --- | --- | --- | --- | --- | --- | --- | --- | --- | --- | --- | --- | --- | --- | --- | --- | --- | --- | --- |
| O=C(N/N=C/c1cccc(O)c1O)c1ccccc1 | 3.68 µM | > 100 µM | 1.15 µM | > 100 µM | 1.97 µM | > 55.7 µM | 1.46 µM | > 100 µM | 0.642 µM | 15.3 µM | 0.511 µM | > 100 µM | 1.98 µM | > 100 µM | 0.567 µM | > 100 µM | 3.22 µM | > 30.2 µM | 1.24 µM | > 100 µM |
| Cc1cn2c(/C=C3/C(=O)N(C)c4ccccc43)c(C)nc2s1 | 6.87 µM | 31.9 µM | 27.4 µM | > 100 µM | 3.93 µM | 21 µM | 5.51 µM | 27.7 µM | 10.7 µM | 52.9 µM | 11.6 µM | > 100 µM | 53.8 µM | > 100 µM | 22.1 µM | > 100 µM | 40.5 µM | > 100 µM | 14.2 µM | 53.4 µM |
| O=C(CCl)Nc1ccc(Cl)cc1 | 6.93 µM | 23 µM | 4.92 µM | 17.4 µM | 1.98 µM | 3.61 µM | 10.3 µM | 25.6 µM | 3.78 µM | 12.6 µM | 1.56 µM | 4.23 µM | 2.14 µM | 4.43 µM | 2.72 µM | 7.66 µM | 4.17 µM | 15.7 µM | 9.31 µM | 22.1 µM |
| NC(=S)N/N=C/c1ccc(OC(=O)COc2ccc(Cl)cc2)cn1 | 40 µM | > 100 µM | 2.46 µM | 8.65 µM | 31.8 µM | > 100 µM | 20.9 µM | > 100 µM | 3.64 µM | 22.8 µM | 3.18 µM | > 100 µM | 5.48 µM | > 100 µM | 2.28 µM | 21.8 µM | 13.4 µM | 48.9 µM | 36.4 µM | > 100 µM |
| COc1cc(OC)c(/C=C/C(=O)c2c(OC)cccc2OC)c(OC)c1 | 0.79 µM | > 100 µM | 2.01 µM | > 29.3 µM | 0.619 µM |  | 0.775 µM | > 100 µM | 0.533 µM | 4.41 µM | 0.566 µM | > 100 µM | 0.561 µM | 2.17 µM | 1.14 µM | > 42.1 µM | 1.99 µM | > 100 µM | 1.01 µM | > 21.3 µM |
| CCS(=O)(=O)c1ccc(OC)c(Nc2ncc(-c3cccc(C(C)=O)c3)o2)c1 | 21.5 µM | > 25 µM | > 25 µM | > 25 µM | > 25 µM | > 25 µM | 19.9 µM | > 25 µM | 8.69 µM | > 25 µM | 10.4 µM | > 25 µM | 3.21 µM | 16.6 µM | 17.9 µM | > 25 µM | 2.69 µM | > 25 µM | > 25 µM | > 25 µM |
| COC(=O)Nc1nc2ccc(Oc3ccc(NC(=O)Nc4ccccc4)cc3)cc2[nH]1 | 0.0696 µM | 0.3 µM | 0.254 µM | 3.1 µM | 0.0835 µM | 0.487 µM | 0.183 µM | > 17 µM | 0.0885 µM | 0.878 µM | 0.178 µM | > 9.6 µM | 0.069 µM | 0.533 µM | 0.267 µM | > 14.5 µM | 0.18 µM | 5.21 µM | 0.348 µM | 6.4 µM |
| Clc1nc(Cl)c2ncn(Cc3cccc(COc4cccc(OCc5cccc(Cn6cnc7c(Cl)nc(Cl)nc76)c5)c4)c3)c2n1 | > 100 µM | > 100 µM | 14.2 µM | 42.8 µM | > 100 µM | > 100 µM | > 100 µM | > 100 µM | > 100 µM | > 100 µM | 23.9 µM | > 100 µM | 7.2 µM | > 100 µM | > 100 µM | > 100 µM | 4.97 µM | 27.5 µM | 90.3 µM | > 100 µM |
| CCN(CC)CCCC(C)Nc1c(C)cnc2cc(Cl)c(C)cc12 (centres undefined) | 23.2 µM | > 58 µM | 12.8 µM | 27.8 µM | 3.96 µM | > 38.6 µM | 17.7 µM | 50.6 µM | 6.83 µM | 21.1 µM | 2.17 µM | 10.7 µM | 8.75 µM | 26.6 µM | 15.3 µM | 33.3 µM | 4.57 µM | 15 µM | 2.49 µM | 8.99 µM |
| c1ccc(C2=NNC3c4ccccc4-c4ccccc4N3C2)cc1 (centres undefined) |  | > 100 µM |  | > 100 µM |  | 37.3 µM |  | > 100 µM |  | 50.5 µM |  | > 100 µM |  | > 100 µM |  | > 100 µM |  | 71.7 µM |  | > 100 µM |
